Data: PubChem BioAssay (NCI)
Where “and” joins values, the source holds several entries; their conditions need not be identical. Equal entries are not always repeated.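 All cell lines were grown in 96-well plates and treated with compound for 48 hours. The concentration for 50% growth inhibition is given as GI50. TGI: concentration producing complete growth inhibition.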 Where a SMILES comes first, the peptide text is derived from it. [ ]: non-standard residue; d: D form. The star is where a group is joined. ξ: configuration not given here. ξD = NC(CC(=O)O)C(=O)O; Boc = CC(C)(C)OC(=O)*; Aib = CC(C)(N)C(=O)O; OBn = c1ccc(CO*)cc1

Key:
Assay in all cases: NCI anticancer screen, dose series, 48 h
BT-549 breast = tested on: BT-549 breast
U251 CNS = tested on: U251 CNS
SN12C renal = tested on: SN12C renal
UACC-257 melanoma = tested on: UACC-257 melanoma
786-0 renal = tested on: 786-0 renal
KM12 colon = tested on: KM12 colon
NCI/ADR-RES ovarian = tested on: NCI/ADR-RES ovarian
NCI-H460 lung = tested on: NCI-H460 lung
OVCAR-5 ovarian = tested on: OVCAR-5 ovarian
HL-60(TB) leukemia = tested on: HL-60(TB) leukemia
NCI-H226 lung = tested on: NCI-H226 lung
SK-MEL-28 melanoma = tested on: SK-MEL-28 melanoma
OVCAR-8 ovarian = tested on: OVCAR-8 ovarian
MOLT-4 leukemia = tested on: MOLT-4 leukemia
SR leukemia = tested on: SR leukemia
MALME-3M melanoma = tested on: MALME-3M melanoma

SMILES | TGI (BT-549 breast) [µM] | TGI (U251 CNS) | TGI (SN12C renal) | TGI (UACC-257 melanoma) | TGI (786-0 renal) | TGI (KM12 colon) | TGI (NCI/ADR-RES ovarian) [µM] | TGI (NCI-H460 lung) | TGI (OVCAR-5 ovarian) | TGI (HL-60(TB) leukemia) | TGI (NCI-H226 lung) | TGI (SK-MEL-28 melanoma) | TGI (OVCAR-8 ovarian) | TGI (MOLT-4 leukemia) | TGI (SR leukemia) [µM] | TGI (MALME-3M melanoma) | GI50 (U251 CNS) | GI50 (NCI-H460 lung) | GI50 (NCI-H226 lung) [µM] | GI50 (MOLT-4 leukemia) [µM]
CC(=O)NC1=NC(=O)/C(=C/c2ccccc2Cl)N1C | > 100 | > 100 µM | > 100 µM | > 100 µM | > 100 µM | > 100 µM | > 100 | > 100 µM | > 100 µM | > 100 µM | > 100 µM | > 100 µM | > 100 µM | > 100 µM |  |  |  |  |  | 
CCOC(=O)c1cc(=O)c2cccc3c2n1CCS3 | > 100 | > 100 µM | > 100 µM | > 100 µM | > 100 µM | > 100 µM | > 100 | > 100 µM | > 100 µM | > 100 µM | > 100 µM | > 100 µM | > 100 µM | > 100 µM |  |  |  |  |  | 
NC(=O)N/N=C\CC(O)(C(F)(F)Cl)C(F)(F)Cl |  | > 10 µM | > 10 µM | > 10 µM | > 10 µM | > 10 µM | > 10 | > 10 µM |  | > 10 µM | > 10 µM | > 10 µM | > 10 µM | > 10 µM | > 10 | > 10 µM |  |  |  | 
CN(C)c1ccc(N=C2N=C(Nc3ccccc3)C(=Nc3ccccc3)S2)cc1 |  |  | > 100 µM | > 100 µM | > 100 µM | > 100 µM | > 100 | > 100 µM | > 100 µM | > 100 µM | > 100 µM | > 100 µM | > 100 µM | > 100 µM | > 100 | > 100 µM |  |  |  | 
COc1cccc([C@@H]2C/C(=N\NC(=O)C(=O)N[C@@H](C)c3ccccc3)c3ccccc3N2)c1 |  | > 100 µM | > 100 µM | > 100 µM | > 100 µM | > 100 µM | > 100 |  | > 100 µM |  | > 100 µM | > 100 µM |  | 34.8 µM |  |  |  |  |  | 
CC(C)(C)OC(=O)NC(CC(=O)OCc1ccccc1)C(=O)NC(C)(C)C(N)=O (stereo unspecified) (Boc-[ξD](OBn)-[Aib]-NH2) | > 100 | > 100 µM | > 100 µM | > 100 µM | > 100 µM | > 100 µM | > 100 | > 100 µM | > 100 µM |  | > 100 µM | > 100 µM | > 100 µM | > 100 µM |  | > 100 µM |  |  |  | 
N#CC(NNC(=O)Cc1ccccc1)c1ccc([N+](=O)[O-])cc1 (stereo unspecified) |  | > 100 µM | > 100 µM | > 100 µM | > 100 µM | > 100 µM |  | > 100 µM | > 100 µM | > 100 µM | > 100 µM | > 100 µM | > 100 µM | > 100 µM | > 100 | > 100 µM |  |  |  | 
O=C1c2ccccc2CC12Cc1cc3c(cc1C2)CCC3 |  | > 100 µM | > 100 µM | 91.3 µM | > 100 µM | 93.9 µM | > 100 | > 100 µM | > 100 µM | > 100 µM | > 100 µM | > 100 µM | > 100 µM | 82.1 µM | 57.5 | 76.2 µM |  |  |  | 
CC(C(=O)NCNC(=O)c1ccccc1)C(=O)Nc1ccccc1 (stereo unspecified) | > 100 | > 100 µM | > 100 µM | > 100 µM | > 100 µM | > 100 µM | > 100 | > 100 µM | > 100 µM | > 100 µM | > 100 µM |  | > 100 µM |  |  | > 100 µM |  |  |  | 
N=S(c1ccccc1[N+](=O)[O-])c1ccccc1[N+](=O)[O-] | 3.13 | 27.7 µM and 29.5 µM | 2.89 µM and 3.19 µM | 6.51 µM and 10.1 µM | 3.93 µM and 4.67 µM | 7.31 µM and 16.7 µM |  | 21.5 µM and 32 µM | 7.69 µM and 11.8 µM | 2.57 µM and 3.39 µM | 12.3 µM and 30.1 µM | 10.9 µM and 11.3 µM | 5.4 µM and 13.1 µM | 4.7 µM and 20.4 µM |  | 6.1 µM and 7.33 µM | 14.5 µM and 16 µM | 7.83 µM and 14.4 µM | 12.6 | 3.93
CCOC(=O)c1c(NC(=S)Nc2ccccc2)sc2c1CCN(C)C2 | > 100 |  | > 100 µM | > 100 µM | > 100 µM | > 100 µM | > 100 | > 100 µM | > 100 µM | > 100 µM | > 100 µM |  | > 100 µM | > 100 µM |  |  |  |  |  | 
Cc1cc(N(CCC#N)CCC#N)ccc1/C=C1N=C(/C=C\c2ccccc2)N(NC(=O)CC(=O)Nc2ccccc2Cl)C\1=O |  | > 100 µM | > 100 µM | > 100 µM | > 100 µM | > 100 µM |  | > 100 µM | > 100 µM | > 100 µM | > 100 µM | > 100 µM | > 100 µM | > 100 µM |  | > 100 µM |  |  |  | 
NC(=O)c1ncn(C2C=CC(CP(=O)(O)O)C2)c1N (stereo unspecified) |  | > 100 µM | > 100 µM | > 100 µM | > 100 µM | > 100 µM | > 100 | > 100 µM | > 100 µM | > 100 µM | > 100 µM | > 100 µM | > 100 µM | > 100 µM | > 100 | > 100 µM |  |  |  | 
CC(C)CC(=O)CC(C)[C@]1(CCCOCc2ccccc2)C(=O)N2CCC3(C[C@@]24CCC[C@H]41)OCCO3 (stereo partly specified) |  | > 10 µM | > 10 µM |  | > 10 µM | > 10 µM | > 10 | > 10 µM | > 10 µM | > 10 µM | > 10 µM |  | > 10 µM | > 10 µM | > 10 |  |  |  |  | 
COc1cc(/C=C2\CCC(C)C3=C2N=c2s/c(=C/c4ccc(Cl)cc4)c(=O)n2C3c2cc(OC)c(OC)c(OC)c2)cc(OC)c1OC (stereo unspecified) |  | > 100 µM | > 100 µM | > 100 µM | > 100 µM | > 100 µM |  |  | > 100 µM | > 100 µM |  | > 100 µM | > 100 µM | > 100 µM | > 100 |  |  |  |  | 
Nc1nc(Cl)c(N)c(NCC2(CO)CCC(OCc3ccccc3)C2)n1 (stereo unspecified) | > 100 | > 100 µM | > 100 µM |  | > 100 µM | > 100 µM | > 100 | > 100 µM | > 100 µM |  | > 100 µM | > 100 µM | > 100 µM | > 100 µM |  | > 100 µM |  |  |  | 
